Data as given in patent US20180200368A1, “DISRUPTION OR ALTERATION OF MICROBIOLOGICAL FILMS” (UNIVERSITEIT GENT, priority 2015, published 2018).

Assays:
Assay in all cases: Bacterial viability of biofilm after VNB cluster disruption and tobramycin treatment
Type in all cases: cell-based
[1] = tested on: Burkholderia multivorans LMG18825 biofilms; details: 70 nm AuNPs + single 7 ns pulse of 561 nm laser (2.8 J/cm2), then tobramycin 32 μg/mL for 24 hours at 37° C.; vs tobramycin alone
Experimental: (§1) In the study, the synergistic effect of vapour nanobubble mediated cluster disruption and antibiotic treatment was evaluated for 3 types of bacteria. As gram-negatives, Burkholderia multivorans LMG18825 and Pseudomonas aeruginosa LESB58 were selected. Staphylococcus aureus Mu50, often implicated in skin and soft tissue infections, was chosen as a challenging representative of gram-positive bacteria. AuNPs were evaluated for achieving efficient loading and disruption of biofilm clusters. […] The Bacteria are stained with SYTO59 and the gold particles were detected by reflection of the laser light.
(§2) In further experiments, the synergistic effect of VNB biofilm cluster disruption with relevant antibiotics or disinfectants is evaluated. The biofilm first received a laser treatment for cluster disruption, followed by treatment with tobramycin. Proper controls were taken into account: untreated control, only AuNPs, only laser treatment, VNBs only, AuNPs with tobramycin. Each location in the biofilm received a single 7 ns pulse of 561 nm laser light (2.8 J/cm2) followed by Tobramycin treatment at 32 μg/mL, 16 μg/mL and 1024 μg/mL for Burkholderia multivorans, Pseudomonas aeruginosa and Staphylococcus aureus biofilms, respectively. The bacterial viability following vapour nanobubble generation and antibiotic treatment is shown in FIG. 5 The different experiments are as follows: […]

[2] = tested on: Staphylococcus aureus Mu50 biofilms; details: 70 nm AuNPs + single 7 ns pulse of 561 nm laser (2.8 J/cm2), then tobramycin 1024 μg/mL for 24 hours at 37° C.
Experimental: as §1, §2

[3] = tested on: Pseudomonas aeruginosa LESB58 biofilms
Experimental: as §1
as §2, with “respectively.” for “respectively. The bacterial viability following vapour nanobubble generation and antibiotic treatment is shown in FIG. 5 The different experiments are as follows:”
In another experiment, the effect of applying different laser pulses on the biofilm was evaluated. […]

## NC[C@H]1O[C@H](O[C@H]2[C@H](O)[C@@H](O[C@H]3O[C@H](CO)[C@@H](O)[C@H](N)[C@H]3O)[C@H](N)C[C@@H]2N)[C@H](N)C[C@@H]1O [tobramycin]
[1]
  increased eradication potency of tobramycin by use of VNBs: ~50 times
[2]
  CFU decrease of combined VNB-tobramycin treatment as compared to tobramycin alone: ~10 times
[3]; 10 laser pulses of 7 ns of 561 nm (2.8 J/cm2) per location (10× VNB formation), then tobramycin for 24 hours at 37° C.
  CFU decrease in comparison with treatment with tobramycin alone: ~4000 times
[3]; 70 nm AuNPs + single 7 ns pulse of 561 nm laser (2.8 J/cm2), then tobramycin 16 μg/mL for 24 hours at 37° C.
  CFU decrease of combined VNB-tobramycin treatment as compared to tobramycin alone: ~20 times
